This is an account of results in ChEMBL document CHEMBL1156435, “Evidence for the involvement of carbon-centered radicals in the induction of apoptotic cell death by artemisinin compounds” (J Biol Chem, 2007).

SMILES strings stand for the structures. Active and inactive are the calls of the source. No cut-off for these calls is given here. Bounds are passed on as bounds.

Data set [1] deals with HL-60. As to the kind of experiment: Cytotoxicity against human HL60 cells assessed as LDH release after 72 hrs. To be noted: HL-60, 72 h. Type of data set: functional, cell-based.
The nature of data set [2]: Stability in human HL60 cells assessed as percentage drug remaining at 10 uM after 24 hrs. The class given is ADME, cell-based. To be noted: HL-60 cells, read-out: Activity.
The subject of data set [3] is PBMC. Briefly: Cytotoxicity against human PBMC after 72 hrs by MTT assay. The class given is cell-based. For orientation: Tetrazolium dyes change colour on reduction, which living cells bring about.
Data set [4] in a line: Stability in human PBMC assessed as percentage drug remaining at 10 uM after 24 hrs. Type of data set: ADME, cell-based. To be noted: read-out: Activity.
Data set [5] in a line: Stability in human HL60 cells assessed as percentage drug remaining at 10 uM after 16 hrs. To be noted: HL-60 cells, read-out: Activity. Type of data set: ADME, cell-based.
For data set [6], the system named is HL-60. As to the kind of experiment: Induction of apoptosis in human HL60 cells assessed as increase in sub-G0/G1 population at 1 uM after 24 hrs by flow cytometry. The class given is functional.
In data set [7] the test system is HL-60. As to the kind of experiment: Stability in human HL60 cells assessed as formation of 10-beta-(p-bromophenoxy)-dihydroartemisinin tetrahydrofuran acetate at 10 uM after 24 hrs. The class given is ADME, cell-based. To be noted: hl-60, 24 h.
Data set [8] concerns HL-60. As to the kind of experiment: Cytotoxicity against human HL60 cells after 72 hrs by MTT assay. The class given is functional, cell-based. Particulars: HL-60, 72 h.
A further data set deals with Jurkat. Briefly: Cytotoxicity against human Jurkat cells after 72 hrs by MTT assay. Type of data set: functional, cell-based.
The subject of data set [9] is HL-60. Briefly: Reversal of induction of apoptosis in human HL60 cells assessed as formation of sub-G0/G1 population at 10 uM after 24 hrs by flow cytometry in presence of Z-VAD-fmk. Type of data set: functional, cell-based. In general terms: Flow cytometry measures light scatter and fluorescence of single cells or particles in a stream.
In data set [10] the test system is HL-60. Briefly: Induction of apoptosis in human HL60 cells assessed as pyknotic nuclear fragments at 10 uM after 24 hrs in presence of Z-VAD-fmk. Type of data set: functional, cell-based.
Data set [11] deals with HL-60. Briefly: Reversal of induction of apoptosis in human HL60 cells assessed as inhibition of caspase 3 activation at 1 uM after 24 hrs by Western blotting in presence of Z-VAD-fmk. The class given is functional, cell-based. (In general: A western blot detects proteins with antibodies after separation by electrophoresis.)
In data set [12] the test system is HL-60. As to the kind of experiment: Induction of apoptosis in human HL60 cells assessed as pyknotic nuclear fragments at 10 uM after 24 hrs. Type of data set: functional, cell-based.
In data set [13] the test system is HL-60. As to the kind of experiment: Induction of apoptosis in human HL60 cells assessed as mitochondrial membrane depolarization at 10 uM after 24 hrs by flow cytometry in presence of Z-VAD-fmk. The class given is functional, cell-based.
For data set [14], the system named is HL-60. As to the kind of experiment: Cytotoxicity against human HL60 cells after 24 hrs by MTT assay. The class given is functional, cell-based. Particulars: HL-60, 24 h.
In data set [15] the test system is HL-60. Briefly: Induction of apoptosis in human HL60 cells assessed as mitochondrial membrane depolarization at 1.0 uM after 12 hrs by flow cytometry. The class given is functional.
In data set [16] the test system is HL-60. As to the kind of experiment: Induction of apoptosis in human HL60 cells assessed as mitochondrial membrane depolarization at 1.0 uM after 24 hrs by flow cytometry. The class given is functional.
Data set [17] has as its system PBMC. Briefly: Induction of apoptosis in human PBMC assessed as mitochondrial membrane depolarization at 0.1 to 100 uM after 24 hrs. Type of data set: functional, cell-based.
Data set [18] has as its system HL-60. As to the kind of experiment: Cytotoxicity against human HL60 cells after 6 hrs by MTT assay. Type of data set: functional, cell-based. To be noted: HL-60, 6 h.
The test system of data set [19] is HL-60. As to the kind of experiment: Induction of apoptosis in human HL60 cells assessed as increase in sub-G0/G1 population at 1 uM after 16 hrs by flow cytometry. The class given is functional.
In data set [20] the test system is HL-60. As to the kind of experiment: Cytotoxicity against human HL60 cells after 16 hrs by MTT assay. The class given is functional, cell-based. To be noted: HL-60, 16 h.
The subject of data set [21] is HL-60. Briefly: Induction of apoptosis in human HL60 cells assessed as activation of caspase 7 by Western blotting. Type of data set: functional, cell-based.
For data set [22], the system named is HL-60. Briefly: Induction of apoptosis in human HL60 cells assessed as activation of caspase 3 by Western blotting. Type of data set: functional, cell-based.

Turning to `C[C@H]1[C@@H](Oc2ccc(Br)cc2)O[C@@H]2O[C@]3(C)CC[C@H]4[C@H](C)CC[C@@H]1[C@@]24OO3`, the half-maximal inhibitory concentration (IC50) – broadly, the concentration that gives 50% inhibition – was 730 nM in the data set with HL-60 [1], above 250 µM with PBMC [3], 120 nM in the data set with HL-60 [8] and 340 nM in the data set on Jurkat. Besides, the remaining at 24 h, 10 µM came to 19% in data set [2] and 64% in data set [4]. Also, in data set [5], the remaining at 16 h, 10 µM came out at 37%. Further, the Activity is 60% with HL-60 [6] and 7% with HL-60 [7].

In the case of `C[C@H]1[C@@H](O)O[C@@H]2O[C@@]3(C)CC[C@H]4[C@H](C)CC[C@@H]1[C@@]24OO3` [ARTENIMOL], the IC50 with HL-60 [1] was 1560 nM; in the data set on PBMC [3], above 250 µM; in the data set on Jurkat it was 650 nM. The outcome in the data set with HL-60 [9], in the data set on HL-60 [11], with HL-60 [12] and with HL-60 [13] was Active. Moreover, the outcome with HL-60 [10] was inactive. Further, the Activity in the data set on HL-60 [6] turned out to be 60%.

Consider `C[C@H]1[C@@H](Oc2ccc(F)cc2)O[C@@H]2O[C@]3(C)CC[C@H]4[C@H](C)CC[C@@H]1[C@@]24OO3`, for which the IC50 with HL-60 [1] was 760 nM; with HL-60 [14], 510 nM; with PBMC [3] it was above 250 µM; in the data set with HL-60 [18], above 100 µM; with HL-60 [8], 540 nM; in the data set on Jurkat it was 230 nM. This compound also yielded an IC50 in the data set with HL-60 [20] of 6.08 µM. Besides, the outcome with HL-60 [10] and in the data set on PBMC [17] was inactive. Also, the Activity with HL-60 [15] is on record as 65.8%; in the data set with HL-60 [16], 29.8%; in the data set with HL-60 [6], 62.9%; in the data set with HL-60 [19] it was 24.3%. For the same compound, the outcome in the data set with HL-60 [12] was Active.

Regarding `C[C@H]1[C@@H](Oc2ccc(F)cc2)O[C@@H]2O[C@]3(C)CC[C@H]4[C@H](C)CC[C@@H]1[C@@]24O3`, the half-inhibitory concentration (IC50) in the data set on HL-60 [1] was 32400 nM; in the data set with HL-60 [14], 460 nM; with PBMC [3] it was above 250 µM; with HL-60 [18] it was above 100 µM; in the data set on HL-60 [8] it was 25500 nM; in the data set with Jurkat, 30700 nM. Moreover, the IC50 with HL-60 [20] amounted to 3.78 µM. In addition, the result in the data set on HL-60 [21] and with HL-60 [22] was inactive.

The compound `COc1cccc2c1C(=O)c1c(O)c3c(c(O)c1C2=O)C[C@@](O)(C(=O)CO)C[C@@H]3O[C@H]1C[C@H](N)[C@H](O)[C@H](C)O1` [DOXORUBICIN] registered an IC50 in the data set with Jurkat of 90 nM.
